Measurements reported in patent US11778995B2, “Genetically modified non-human animals and methods of use thereof” (Regeneron Pharmaceuticals, Inc., priority 2012, dated 2023).

System: INA-6 cells
Assay: μCT analysis of murine femurs after treatment of INA-6-engrafted mice with anti-myeloma drugs
Format: in vivo, mouse
Details: Rag2−/−Il2rgnullIl6h/hhSIRPa+ mice engrafted with 5×10^5 intrafemorally injected INA-6 cells, treated biweekly, femurs analyzed after four weeks, compared to untreated mice
Excerpt: FIG. 7 is a graph depicting the results of μCT analysis of murine femurs after treatment with anti-myeloma drugs. Rag2^−/−Il2rg^nullIl6^h/hhSIRPa+ were engrafted with 5×10^5 intrafemorally injected INA-6 cells and treated biweekly with Velcade® or Zometa®, respectively. After four weeks, mice were sacrificed and femurs were fixed in 70% ethanol for μCT analysis. Trabecular bone and tissue volumes were quantified to calculate the ratio between bone to tissue volume.
Transplantation of cells. For intrafemoral transplantation of INA6 cells, Rag2^−/−Il2rg^null Il6^h/hhSIRPa^+ mice were irradiated twice with 200 rad from an X-ray source.
Indicated amounts of cells were then transplanted into the femur of recipient mice. Briefly, mice were anaesthetized using Ketamine/Xylazine and a hole was drilled into the patellar surface of the femur using a 26 gauge needle. The cells were then slowly injected in a volume of 20 μl using a 27 gauge needle. […]
μCT. Femur morphometry was quantified using cone-beam microfocus x-ray computed tomography (μCT40; ScancoMedicalAG). […]
Therefore, it was next examined whether transplantation of the tumor cell line in its natural microenvironment is able to reproduce the pathology typically associated with human MM. […] Specifically, the loss of trabecular bone mass was observed by histology, which was quantified by μCT. […]

O=P(O)(O)C(O)(Cn1ccnc1)P(=O)(O)O [Zometa]
bone resorption as quantified by μCT (ratio between bone to tissue volume): able to reduce bone resorption
